Patent publication US8008491B2, “Substituted AZA-indoles as inhibitors of poly(ADP-ribose) polymerase (PARP)” (Aventis Pharmaceuticals, Inc., priority 2003, dated 2011)

Legend:
[1] = tested on: HL-60 (human leukemia) cells; assay: Cell-based assay: protection from cell death induced by serum deprivation (Alamar Blue); conditions: median effective concentration preventing cell death, HL-60, 0.1% FCS, 24 hr
Procedure: HL-60 (human leukemia) cells are grown and maintained using standard procedures in RPMI 1640+Glutamax medium supplemented with 10% fetal calf serum (FCS). For assay, cells are suspended in medium supplemented with 0.1% FCS at 0.5 million cells/mL and seeded into 96 well plates (100 μL/well). After preincubation for 3 hrs, cells are treated with compound for 1 hr, then Alamar Blue (Serotec) is added to the cells. After a further 24 hr incubation, fluorescence is measured (ex 560 nm, em 590 nm). Decrease in fluorescence compared to control cells (10 μM of a potent PARP inhibitor) is a measure of cell death. Increased fluorescence in the presence of test compound indicates protection from cell death induced by serum deprivation. For detection of polyADP-ribosylation, cells are subjected to serum deprivation in the presence and absence of compound. Cells are lysed and proteins are run on an SDS-PAGE gel. PolyADP-ribosylated proteins are detected with antibody to polyADP-ribose (Alexis or Calbiochem).
The results obtained from this study are expressed as EC50 (median effective concentration of the test compound that was effective in preventing the cell death—expressed in micromolar (μM) concentration) for each of the tested compounds and are summarized in Table 4.

Male Fisher 344 rats = assay: Stroke model: middle cerebral artery (MCA) occlusion, infarct volume; assay type: in vivo, rat; conditions: total dose 40 mg/kg i.v. (10 mg/kg bolus plus 5 mg/kg/hr for 6 hrs) 15 min after MCA occlusion; 48 hours post-occlusion
Procedure: Male Fisher 344 rats are anesthetized. The right carotid artery is isolated and ligated, and the right jugular vein is canulated for compound administration. The middle cerebral artery (MCA) was exposed through a craniotomy, and the MCA and its right branch, the lenticulostriate artery are electrocoagulated. The arteries are cut to avoid recanalization. […] The compounds are given as a 10 mg/kg bolus followed by an infusion of 5 mg/kg/hr for 6 hrs (total dose 40 mg/kg).
48 Hours post-MCA occlusion the rats are sacrificed, and the brains removed and cut into 2-mm coronal sections.
A total dose of 40 mg/kg of 2-(piperazin-1-yl)-1-phenyl-1H-indole-3-carboxaldehyde (Example 3) is given as bolus plus infusion as described above.

Male Sprague-Dawley rats = assay: Myocardial ischemia model: coronary artery occlusion and reperfusion, infarct size; assay type: in vivo, rat; conditions: 20 min occlusion, 60 min reperfusion
Source text: Male Sprague-Dawley rats are anesthetized and the chest is opened. A thin silk thread is placed around the left anterior descending coronary artery. The silk is passed through a plastic tube and the chest is closed. After stable hemodynamics, the coronary artery is occluded by applying tension to the thread via the tube. Successful occlusion is confirmed by a decrease in systolic blood pressure and alterations in ECG. Reperfusion is initiated by releasing the tension on the ligature.
For testing efficacy of Example 3 in this animal model, animals are divided into three groups. One group received the compound of Example 3 at 10 mg/kg i.v. 10 min prior to occlusion. A second group received compound of Example 3 at the same dose 5 min prior to reperfusion. The third group served as vehicle control. The period of occlusion is 20 min, followed by reperfusion for 60 min. After sacrifice infarct size is measured by staining of heart tissue slices with triphenyltetrazolium chloride and expressed as a percent (%) of area at risk.
A similar study is carried out with cariporide, a reference standard.

human PARP (PARP1) = human PARP (PARP1) (Homo sapiens, UniProt P09874); assay: PARP enzyme assay of Table 3 (radioactive enzyme assay or 'ELISA' enzyme assay); conditions: IC50 (μM), fifty percent inhibitory concentration; recombinant human PARP;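 further: Baculovirus-expressed PARP1 from insect cells, activity read as tritium from labeled NAD in acid-precipitated protein, or as biotin-NAD built into plate-bound histone by absorbance at 450 nm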
Sequence of human PARP (PARP1) (P09874 whole entry): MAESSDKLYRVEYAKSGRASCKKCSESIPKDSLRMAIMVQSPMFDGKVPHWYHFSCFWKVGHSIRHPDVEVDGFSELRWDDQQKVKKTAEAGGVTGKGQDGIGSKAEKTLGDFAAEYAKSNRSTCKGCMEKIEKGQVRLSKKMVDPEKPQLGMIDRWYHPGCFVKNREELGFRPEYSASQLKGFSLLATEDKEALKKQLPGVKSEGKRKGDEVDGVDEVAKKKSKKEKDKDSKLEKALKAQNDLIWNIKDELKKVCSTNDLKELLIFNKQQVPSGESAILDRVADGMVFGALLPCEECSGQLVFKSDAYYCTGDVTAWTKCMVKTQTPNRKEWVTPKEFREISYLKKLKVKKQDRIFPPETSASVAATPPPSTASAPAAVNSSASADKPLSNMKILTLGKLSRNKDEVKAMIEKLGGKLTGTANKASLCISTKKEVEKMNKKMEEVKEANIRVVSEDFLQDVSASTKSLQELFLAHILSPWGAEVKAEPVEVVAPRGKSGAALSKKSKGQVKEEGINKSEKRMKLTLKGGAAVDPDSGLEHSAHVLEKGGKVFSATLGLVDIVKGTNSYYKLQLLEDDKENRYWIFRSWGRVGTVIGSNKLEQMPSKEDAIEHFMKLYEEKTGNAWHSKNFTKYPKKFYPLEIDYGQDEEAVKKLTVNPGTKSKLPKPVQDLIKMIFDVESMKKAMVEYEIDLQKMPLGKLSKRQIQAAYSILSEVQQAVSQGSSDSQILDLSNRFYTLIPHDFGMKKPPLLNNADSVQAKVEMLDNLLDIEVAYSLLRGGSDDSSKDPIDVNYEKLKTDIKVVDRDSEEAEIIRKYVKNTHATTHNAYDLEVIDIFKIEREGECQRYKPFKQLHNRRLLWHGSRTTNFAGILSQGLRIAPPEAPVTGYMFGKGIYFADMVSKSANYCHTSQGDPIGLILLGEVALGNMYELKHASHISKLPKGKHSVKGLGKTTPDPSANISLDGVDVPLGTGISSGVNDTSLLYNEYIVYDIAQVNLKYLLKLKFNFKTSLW
Procedure: The compounds of this invention are then tested with this enzyme preparation using either the radioactive enzyme assay or by the “ELISA” enzyme assay as set forth below.
Incorporation of radioactivity from labeled NAD into acid-precipitated protein is measured. The reaction mixture (volume 100 μL or 50 μL, in a test-tube or 96-well plate) contained 100 μg/mL calf thymus DNA (sonicated), 100 μg/mL histones, 100 mM Tris (pH 8.0), 1.0 mM DTT, 10 mM MgCl2, NAD (200 μm, 0.65 microcurie/mL), and varying amounts of enzyme. The reaction was incubated for 10 min at 37° C. or at room temperature for 60 min. The reaction was stopped and protein precipitated by addition of ice-cold trichloroacetic acid (TCA; 10% or 20% aqueous w/v). After brief storage in ice or at 4° C. for 2 hrs, the reaction mixture is filtered under vacuum through a glass fiber filter (2.5 cm disc, or 96-well filter plate). After washing with TCA and ethanol, the filter is dried and counted for tritium CPM after addition of scintillation fluid.
Incorporation of biotin-NAD into histone coated on plate is measured. A 96-well protein-binding EIA plate is coated with histone and blocked with bovine serum albumin. The reaction mixture (50 μL) contained DNA, buffer, enzyme, (test compound), and 250 μM of NAD and 5 μL of biotin-NAD (Trevigen). After reaction at room temperature the wells are washed and treated with Extravidin (Sigma). After incubation and washing color is developed with the peroxidase substrate TMB (Sigma). The TMB reaction is quenched with 2M sulfurric acid and the absorbance at 450 nm is read.

IC50 (human PARP (PARP1)): 2.5 µM
Compound: O=Cc1c(N2CCNCC2)n(-c2ccccc2)c2ccccc12 [Example 3, 2-(Piperazin-1-yl)-1-phenyl-1H-indole-3-carboxaldehyde]
EC50 [1]: 1.9 µM
reduction in infarct volume (Male Fisher 344 rats): 40-50%
infarct size (% of area at risk), effect when given prior to reperfusion (Male Sprague-Dawley rats; 10 mg/kg i.v. 5 min prior to reperfusion (Example 3)): small but significant effect
infarct size (% of area at risk), effect when given prior to ischemia (Male Sprague-Dawley rats; 10 mg/kg i.v. 10 min prior to occlusion (Example 3)): significant protection
